This assay concerns the target T1, Human Neutrophil Elastase (HNE) (Homo sapiens, UniProt P08246).
T1 construct: Human Neutrophil Elastase (HNE) purified from serum; purchased Calbiochem 324681; host or cells: natural enzyme purified from human serum (so in the source)
T1 sequence (P08246 30-247 limits assumed): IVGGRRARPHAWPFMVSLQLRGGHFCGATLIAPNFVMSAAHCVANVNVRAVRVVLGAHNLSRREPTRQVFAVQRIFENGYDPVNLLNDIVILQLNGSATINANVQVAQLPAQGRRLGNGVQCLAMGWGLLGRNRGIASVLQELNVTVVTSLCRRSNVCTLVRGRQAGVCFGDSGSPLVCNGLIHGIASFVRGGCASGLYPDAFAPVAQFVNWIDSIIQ
Nature of the assay: Human Neutrophil Elastase Quenched-FRET Assay. The format is biochemical. To be noted: HNE 1.7 nM, substrate MeOSuc-AAPV-AMC 100 μM, pH 7.5; read-out: Inhibition of HNE IC50. As to the method: Human Neutrophil Elastase Quenched-FRET Assay
The assay uses Human Neutrophil Elastase (HNE) purified from serum (Calbiochem art. 324681; Ref. Baugh, R. J. et al., 1976, Biochemistry. 15, 836-841). HNE was stored in 50 mM sodium acetate (NaOAc), 200 mM sodium chloride (NaCl), pH 5.5 with added 30% glycerol at −20° C. The protease substrate used was Elastase Substrate V Fluorogenic, MeOSuc-AAPV-AMC (Calbiochem art. 324740; Ref. Castillo, M. J. et al., 1979, Anal. Biochem. 99, 53-64). The substrate was stored in dimethyl sulphoxide (DMSO) at −20° C. The assay additions were as follows: Test compounds and controls were added to black 96-well flat-bottom plates (Greiner 655076), 1 μL in 100% DMSO, followed by 30 μL HNE in assay buffer with 0.01% Triton (trade mark) X-100 detergent. The assay buffer constitution was: 100 mM Tris(hydroxymethyl)aminomethane (TRIS) (pH 7.5) and 500 mM NaCl. The enzyme and the compounds were incubated at room temperature for 15 minutes. Then 30 μl substrate in assay buffer was added. The assay was incubated for 30 minutes at room temperature. The concentrations of HNE enzyme and substrate during the incubation were 1.7 nM and 100 μM, respectively. […] Fluorescence was measured on a Wallac 1420 Victor 2 instrument at settings: Excitation 380 nm, Emission 460 nm. IC50 values were determined using Xlfit curve fitting using model 205.

On to `Cc1c([S+]([O-])c2ccc(C#N)cc2)cc(C(=O)NCCOCCOCCNC(=O)c2cc([S+]([O-])c3ccc(C#N)cc3)c(C)n(-c3cccc(C(F)(F)F)c3)c2=O)c(=O)n1-c1cccc(C(F)(F)F)c1` (centres unmarked) [Example 1], for which the IC50 is 0.61 nM. The same measure for `Cc1c(-c2ccnn2-c2ccc(C#N)cc2)cc(C(=O)NCC(O)CNC(=O)c2cc(-c3ccnn3-c3ccc(C#N)cc3)c(C)n(-c3cccc(C(F)(F)F)c3)c2=O)c(=O)n1-c1cccc(C(F)(F)F)c1` [Example 2, N,N′-(2-Hydroxypropane-1,3-diyl)bis(5-(1-(4-cyanophenyl)-1H-pyrazol-5-yl)-6-methyl-2-oxo-1-(3-(trifluoromethyl)phenyl)-1,2-dihydropyridine-3-carboxamide)]: 0.26 nM.

A word on the IC50: it is the concentration at which inhibition is half-maximal.
